In one assay the test system is orexin receptors. Kind of assay: Rat sleep/EEG studies, central administration. The format is in vivo. The note with it: central administration at the onset of the normal sleep period; largely at the expense of paradoxical sleep and slow wave sleep 2. The source says:
Therefore antagonists of its receptor may be useful in the treatment of sleep disorders including insomnia.

The subject of another assay is freely-feeding rats. The note with it: central administration, 4 hour time period; cited from earlier work.

No end group written: not given here.

Consider “orexin-A: ligand for the orexin-1 receptor, an agonist of the orexin receptors; 33-residue peptide, sequence in the 1st table (QPLPDCCRQKTCSCRLYELLHGAGNHAAGILTL-NH2; not fully specified (residue 1, bridges); ends and bridges not checked; UniProt O43612 34-66, looked up)”, for which the effect on arousal result with orexin receptors is “dose-related increase in arousal”. Moreover, the “increase in food intake over control rats receiving vehicle” value in the assay with freely-feeding rats is listed as “approximately four-fold”.

Source of the values: patent US6699879B1, “Phenyl urea and phenyl thiourea derivatives as orexin receptor antagonists” (SmithKline Beecham p.l.c., priority 1999, dated 2004).
